These results are taken from patent US20250241294A1, “ITACONATE PRESERVATION SOLUTION” (University Health Network, priority 2024, published 2025).

Assay [1] concerns Human BEAS-2B bronchial epithelial cells. In words: BEAS-2B cold ischemia-reperfusion injury model: confluence by Incucyte imaging. The settings on record: for confluence, mean percent difference compared to standard LPD alone: immediately upon reperfusion. The class given is cell-based. The protocol: (§1) Human BEAS-2B bronchial epithelial cells were cultured until subconfluence in 96-well plates with standard media (DMEM+10% FBS). […] These parameters simulated the real-life environment of standard lung preservation.
(§2) This was followed by up to 48 h of warm reperfusion at 37° C. in regular cell culture media (at 5% CO2). Regular cell media was used as negative control for the simulated cold ischemia, and regular LPD was used as positive control. Upon switching to LPD, the four different itaconate derivatives in the three different concentrations were assessed and compared to regular LPD and standard media during cold static preservation. Confluence and apoptosis measurements (based on Caspase3/7 dye) were taken by serial imaging in an Incucyte S3 Live Cell imaging device to assess the efficacy of the itaconate-containing solutions in preserving each cell culture.
(§3) Four different itaconate molecules were tested, each in three different dosages and four replicates: underivatized itaconic acid (ITA) at 5 mM, 7.5 mM, and 10 mM; pH-corrected itaconic acid (NaOH-ITA) at 5 mM, 7.5 mM, and 10 mM; dimethyl itaconate (DI) at 0.125 mM, 0.25 mM, and 0.5 mM; and 4-octyl itaconate (4OI) at 0.125 mM, 0.25 mM, and 0.5 mM. […] Upon switching to LPD, the four different itaconate molecules in the three different concentrations each were assessed and compared to regular LPD (positive control) and standard media (negative control) during cold static preservation. Four replicates for each condition were used.
FIG. 5D illustrates the cell confluence results of the in vitro phase. T=0 represents the cell confluence reached before the 18-hour period of cold ischemia described with respect to FIG. 5A. Cells were cultured until subconfluence (shown at t=4 h in FIG. 5D), followed by cold ischemia from t=4 h to t=22 h. T=22 h represents the beginning of warm reperfusion as described with respect to FIG. 5A.

For assay [2] the test system is unchanged. Nature of the assay: BEAS-2B cold ischemia-reperfusion injury model: cell morphology. It is filed as cell-based. The protocol:
as §1, §2, §3
For example, FIG. 6B illustrates the cell morphology of cells exposed to i) LPD (positive control), ii) DMEM (negative control), iii) ITA 10 mM, iv) DI 0.25 mM, and v) 4OI 0.25 mM following cold ischemia. FIG. 6C illustrates the cell morphology of these groups at reperfusion at t=22 h. […] The cells cultured in DMEM (the negative control) died during cold ischemia and were washed away during reperfusion, as shown by a comparison of FIG. 6B to FIG. 6C.

In assay [3] the test system is pig lungs. In words: Porcine ex vivo lung perfusion (EVLP) model of lung transplantation: lung physiology. More on the design: species or system Yorkshire pigs. How it is done: (§4) Lungs were surgically harvested from Yorkshire pigs weighing 31-38 kg. The dimethyl itaconate (DI) 0.25 mM solution was selected for testing in vivo due to positive performance in vitro. The lungs were randomized to be flushed with a flush solution of Low Potassium Dextran (LPD) in two groups, with or without 0.25 mM dimethyl itaconate (DI) (n=4 pairs of lungs per group). For flushing, 2 L of flush solution were administered antegrade, and […] was administered retrograde prior to lung static preservation. Retrograde flush solution was collected in a sterile bag and used to coat the lungs during the preservation period. When appropriate (based on assigned randomization), DI was added to all 3 L of flush solution. Surgical teams were blinded to the intervention.
(§5) Still referring to FIG. 5C, lungs were subsequently preserved at 4° C. for an extended period of 36 h, then reperfused on EVLP for 6 h. EVLP allows lungs to be ventilated, reperfused to normothermia, and evaluated in an extracorporeal platform. EVLP performance was measured because it strongly correlates with post-transplant, recipient performance. Multiple physiological parameters of lung function were measured, and perfusate and tissue biopsies were collected. The measured physiological parameters included plateau airway pressure, change in partial pressure of oxygen delta PO2 (left atrium PO2—pulmonary artery PO2), static compliance, pulmonary vascular resistance (PVR), total perfusate loss, and wet to dry (W/D) ratios.
(§6) Statistical analysis was performed with GraphPad prism 9.0 (GraphPad Software, San Diego, CA). Two-way repeated measures ANOVA with Dunn's post-test based on the distribution of data and Mann-Whitney test were used for comparison between groups, when appropriate. Values are presented as mean±SEM unless stated otherwise, and p values <0.05 are considered statistically significant.

Assay [4] concerns inflammatory cytokines in both tissue and perfusate. In words: Porcine EVLP model: cytokine analysis of lung tissue and perfusate. It is filed as in vivo, Yorkshire pigs. The settings on record: DI 0.25 mM flush vs control. The protocol: as §4, §5, §6
In assay [5] the test system is Human bronchiole epithelial cells (BEAS2B). In words: Intracellular free ferrous iron (FerroOrange) after cold storage. The class given is cell-based. The settings on record: LPD + 0.25 mM DI vs LPD alone; 24 h at 10° C.; p<0.001. The protocol: This example aimed to determine whether an organ preservation solution having 0.25 mM dimethyl itaconate (DI) could have anti-ferroptotic properties. Human bronchiole epithelial cells (BEAS2B) were cultured to sub-confluence in standard culture medium (DMEM+10% fetal bovine serum) at 37° C. Upon reaching sub-confluence, the culture medium was aspirated completely, and cells were washed twice with phosphate-buffered saline (PBS) before adding cooled LPD or LPD supplemented with DI at a concentration of 0.25 mM. Cells were then placed in a 10° C. refrigeration unit for 24 hours. […] To measure intracellular iron between treatment groups after storage for 24 h at 10° C., FerroOrange, a fluorescent probe for free ferrous ions (Fe2+), was used according to the manufacturer's protocol (Dojindo Molecular Laboratories, MD, USA).
A […] FerroOrange solution was prepared in serum-free DMEM. Cells were washed with serum-free DMEM three times before being exposed to FerroOrange solution. The plate was then stored at 37° C. for 30 minutes. Fluorescence was quantified with a Cytation microplate reader (BioTek, VT, USA), with the top reading mode at an excitation wavelength of 543 nm and emission wavelength of 580 nm.

Assay [6] relates to Human BEAS-2B bronchial epithelial cells. Nature of the assay: BEAS-2B cold ischemia-reperfusion injury model: apoptosis (Caspase3/7 dye). It is filed as cell-based. The settings on record: immediately upon reperfusion, p<0.001. The protocol: as §1
This was followed by up to 48 h of warm reperfusion at 37° C. in regular cell culture media (at 5% CO2). Regular cell media was used as negative control for the simulated cold ischemia, and regular LPD was used as positive control. Upon switching to LPD, the four different itaconate derivatives in the three different concentrations were assessed and compared to regular LPD and standard media during cold static preservation. […]
Four different itaconate molecules were tested, each in three different dosages and four replicates: underivatized itaconic acid (ITA) at 5 mM, 7.5 mM, and 10 mM; pH-corrected itaconic acid (NaOH-ITA) at 5 mM, 7.5 mM, and 10 mM; dimethyl itaconate (DI) at 0.125 mM, 0.25 mM, and 0.5 mM; and 4-octyl itaconate (4OI) at 0.125 mM, 0.25 mM, and 0.5 mM. […] Upon switching to LPD, the four different itaconate molecules in the three different concentrations each were assessed and compared to regular LPD (positive control) and standard media (negative control) during cold static preservation. […]

Take `C=C(CC(=O)OCCCCCCCC)C(=O)O` [4OI, 4-octyl itaconate]: the “cell confluence compared to standard LPD alone or DI” value in assay [1] (4OI in LPD, 18 h cold ischemia, reperfusion) was “did not perform favorably”. The cell morphology result in assay [2] (0.25 mM and 0.5 mM 4OI in LPD, 18 h cold ischemia at 4° C., reperfusion) was “morphological cell injury to a lower extent”.
Consider `C=C(CC(=O)OC)C(=O)OC` [DI, dimethyl itaconate], for which the “areas of edema on dorsal lung surface” value in assay [3] (flush LPD with 0.25 mM DI vs LPD, 36 h at 4° C., after 6 h of perfusion) is recorded as “more pronounced in the control group when compared to the DI group”. Besides, the plateau airway pressures entry in assay [3] (flush LPD+DI 0.25 mM vs LPD, 36 h at 4° C., 6 h EVLP, p<0.0001) is recorded as “lower”. Moreover, the “delta PO2 (left atrium PO2—pulmonary artery PO2)” value in assay [3] (flush LPD+DI 0.25 mM vs LPD, 36 h at 4° C., 6 h EVLP, p<0.01) was “higher”. Moreover, the static compliances result in assay [3] (flush LPD+DI 0.25 mM vs LPD, 36 h at 4° C., 6 h EVLP, p<0.05) was “higher”. Also, the total perfusate loss entry in assay [3] (flush LPD+DI 0.25 mM vs control, 6 h EVLP, not statistically significant) is listed as “trend toward reduced total perfusate loss”. The wet-to-dry ratios entry in assay [3] (flush LPD+DI 0.25 mM vs control, trend, not statistically significant) is recorded as “reduced wet-to-dry ratios”. Besides, in assay [4] (after 6 hours, p<0.05), the “IL-6 expression levels in the perfusate” value is on record as “significantly reduced”, the “IL-8 expression levels in the perfusate” value is recorded as “reduced IL-8 expression levels” and the “perfusate expression of TNF-α” value is recorded as “significantly reduced perfusate expression of TNF-α”. For the same molecule, the “IL-10 expression levels in the perfusate” value in assay [4] (after 6 hours, p<0.05 (FIG. 5M)) is on record as “reduced IL-10 expression levels”. Besides, the “tissue IL-8 expression” value in assay [4] (lung tissue, p<0.0001) is on record as “reduced tissue IL-8 expression”. The “confluence ranking among tested solutions” value in assay [1] (DI 0.125 mM) is given as “highest confluence”. For the same molecule, the “confluence, mean percent difference compared to standard LPD alone” value in assay [1] (DI 0.125 mM, CI 2.0-13.7, p<0.01) is listed as 7.84%. In addition, the “confluence ranking among tested solutions” value in assay [1] (DI 0.25 mM) is reported as “highest confluence”. Further, in assay [1] (DI 0.25 mM, CI 12.34-0.14, p<0.05), the “confluence, mean percent difference compared to standard LPD alone” value came to 6.24%. Besides, in assay [1] (after 24 h of reperfusion, p<0.001), the “confluence compared to positive control (LPD)” value is given as “differences remained favoring DI”. For the same molecule, in assay [5], the “intracellular iron (FerroOrange fluorescence)” value is “significantly reduced amount of intracellular iron”. The cellular morphology result in assay [2] (DI in LPD, 18 h cold ischemia at 4° C., reperfusion (FIG. 6D)) is “did not indicate any signs of shrinkage, pyknosis, or karyorrhexis”.
Regarding `C=C(CC(=O)O)C(=O)O` [ITA, itaconic acid], the confluence over reperfusion entry in assay [1] (ITA in LPD, over 48 hours of reperfusion at 37° C.) is “stable confluence”. Moreover, in assay [6] (ITA in LPD), the “apoptosis counts compared to positive controls” value was “elevated apoptosis counts”. The cell morphology result in assay [2] (ITA in LPD (10 mM shown), 18 h cold ischemia at 4° C., 50% O2, compared to LPD) is “cell shrinkage, nuclear pyknosis (condensation), and start of karyorrhexis (fragmentation), consistent with irreversible cell injury”.
Regarding `C=C(CC(=O)O)C(=O)O` [NaOH-ITA, itaconic acid], the “apoptosis counts compared to positive controls” value in assay [6] (higher concentrations of NaOH-ITA) was “elevated apoptosis counts”. For the same molecule, the cell morphology result in assay [2] (higher concentrations of NaOH-ITA in LPD, after 18 h cold ischemia at 4° C.) was “presented morphological changes”.
